Emax, IC50 and EC50 data for 1 molecule are collected here from doi:10.1101/2024.04.19.590212v1 (biorxiv, 2024).

Structures are written as SMILES. Where two headings read alike, the source gives them in different places.

Assay [1] concerns the target T1, 5-HT2AR (Homo sapiens, UniProt P28223). In words: cell-based. The following applies: U2OS, read-out: 5-HT2AR Rmax (internalization).
Assay [2] addresses T2, 5-HT2CR (Homo sapiens, UniProt P28335). Description: cell-based.
Assay [3] concerns the target T2, 5-HT2CR. The following applies: antagonist mode against 5-HT-induced response; incomplete inhibition.
The target of assay [4] is T1, 5-HT2AR. In words: cell-based. The following applies: U2OS, read-out: 5-HT2AR Rmax (beta-arrestin).
Assay [5] deals with T2, 5-HT2CR. In words: cell-based. The source holds these as a separate data set.
For assay [6], the target named is T3, 5-HT1BR (Homo sapiens, UniProt P28222). In words: cell-based.
The target of assay [7] is T2, 5-HT2CR. The note with it: agonist mode; partial agonist.
In assay [8] the target is T3, 5-HT1BR. Description: cell-based. The following applies: CHO-K1, read-out: 5-HT1BR Rmax (cAMP).
The target in assay [9] is T3, 5-HT1BR. Description: cell-based. The source holds these as a separate data set.

T3 sequence (P28222 whole entry): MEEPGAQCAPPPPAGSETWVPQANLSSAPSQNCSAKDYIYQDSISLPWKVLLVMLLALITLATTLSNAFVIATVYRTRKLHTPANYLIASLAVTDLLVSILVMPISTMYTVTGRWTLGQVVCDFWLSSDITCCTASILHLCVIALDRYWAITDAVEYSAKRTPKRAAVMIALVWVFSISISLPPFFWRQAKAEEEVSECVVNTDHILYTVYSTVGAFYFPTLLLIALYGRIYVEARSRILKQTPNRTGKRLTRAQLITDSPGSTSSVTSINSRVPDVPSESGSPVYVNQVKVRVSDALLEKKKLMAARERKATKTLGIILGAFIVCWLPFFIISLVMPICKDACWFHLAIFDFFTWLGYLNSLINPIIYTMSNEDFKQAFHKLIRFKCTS
T2 sequence (P28335 33-458): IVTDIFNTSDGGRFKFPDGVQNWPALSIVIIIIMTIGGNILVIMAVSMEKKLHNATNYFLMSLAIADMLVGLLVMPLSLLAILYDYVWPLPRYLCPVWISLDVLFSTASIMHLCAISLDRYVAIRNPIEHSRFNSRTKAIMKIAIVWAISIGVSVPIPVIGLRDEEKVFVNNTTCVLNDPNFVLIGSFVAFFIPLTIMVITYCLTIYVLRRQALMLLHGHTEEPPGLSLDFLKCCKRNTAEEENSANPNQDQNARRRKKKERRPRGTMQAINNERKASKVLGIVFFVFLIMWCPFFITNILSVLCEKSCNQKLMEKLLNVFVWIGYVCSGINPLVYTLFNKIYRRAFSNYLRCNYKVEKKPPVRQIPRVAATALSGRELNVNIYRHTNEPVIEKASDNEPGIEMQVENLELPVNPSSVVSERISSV
T1 sequence (P28223 whole entry): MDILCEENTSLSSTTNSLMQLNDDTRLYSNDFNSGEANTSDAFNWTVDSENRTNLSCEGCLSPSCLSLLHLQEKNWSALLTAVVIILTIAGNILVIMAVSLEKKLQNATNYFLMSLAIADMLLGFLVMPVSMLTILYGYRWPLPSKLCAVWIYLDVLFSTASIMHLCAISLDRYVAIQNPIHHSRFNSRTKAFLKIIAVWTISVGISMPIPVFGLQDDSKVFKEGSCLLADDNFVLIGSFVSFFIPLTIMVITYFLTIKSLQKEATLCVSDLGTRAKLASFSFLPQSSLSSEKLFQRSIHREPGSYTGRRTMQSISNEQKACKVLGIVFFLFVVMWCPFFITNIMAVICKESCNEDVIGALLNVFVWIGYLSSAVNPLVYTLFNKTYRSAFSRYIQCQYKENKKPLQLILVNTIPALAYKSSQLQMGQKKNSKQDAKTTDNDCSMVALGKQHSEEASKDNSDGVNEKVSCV

On to `COc1cc(C(F)(F)F)c(OC)cc1[C@@H]1CCCNC1` [LPH-5, (S)-3-(2,5-dimethoxy-4-(trifluoromethyl)phenyl)piperidine], for which the results for the Emax at 5-HT2AR [1], at 5-HT2AR [4] and on 5-HT1BR [8] were 94 ± 11%, 61 ± 11% and 78%, respectively. Also, the IC50 is 38 nM against 5-HT2CR [2] and 300 [pIC50 6.52 ± 0.08] nM at 5-HT2CR [3]. The EC50 at 5-HT2CR [5] is above 30000 nM; at 5-HT1BR [6] it was 870 nM; at 5-HT2CR [7], 110 [pEC50 6.96 ± 0.07] nM; at 5-HT1BR [9], above 30000 nM.
